Test results taken from US9896439B2, “Pyrazole-substituted arylamides as P2X3 and P2X2/3 antagonists” (Roche Palo Alto LLC, priority 2007, dated 2018).

Key:
human P2X2/3 receptor = target: T1, human P2X2/3 receptor (Homo sapiens, UniProt P56373+Q9UBL9); assay: P2X2/3 FLIPR (Fluorometric Imaging Plate Reader) assay; format: cell-based; settings: CHO-K1 cells transfected with human P2X2/3; agonist α,β-meATP 5 μM; Fluo-3 AM fluorescence; read-out: pKi for the P2X2/3 receptor (converted)
T1 construct: expressed in transfected cells; host or cells: CHO-K1
T1 sequence (Q9UBL9 1-471): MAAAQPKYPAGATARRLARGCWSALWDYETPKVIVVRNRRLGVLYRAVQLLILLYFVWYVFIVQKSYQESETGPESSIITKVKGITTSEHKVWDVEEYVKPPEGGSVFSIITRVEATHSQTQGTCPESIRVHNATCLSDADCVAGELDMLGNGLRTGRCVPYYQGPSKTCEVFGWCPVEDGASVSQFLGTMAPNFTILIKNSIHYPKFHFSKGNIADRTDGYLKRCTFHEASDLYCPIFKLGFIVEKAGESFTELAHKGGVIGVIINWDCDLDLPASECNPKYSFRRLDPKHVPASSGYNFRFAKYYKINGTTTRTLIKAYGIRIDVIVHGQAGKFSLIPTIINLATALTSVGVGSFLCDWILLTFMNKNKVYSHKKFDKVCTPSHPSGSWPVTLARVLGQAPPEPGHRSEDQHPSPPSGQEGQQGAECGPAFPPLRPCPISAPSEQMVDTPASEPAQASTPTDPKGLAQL
T1 sequence (P56373 1-397): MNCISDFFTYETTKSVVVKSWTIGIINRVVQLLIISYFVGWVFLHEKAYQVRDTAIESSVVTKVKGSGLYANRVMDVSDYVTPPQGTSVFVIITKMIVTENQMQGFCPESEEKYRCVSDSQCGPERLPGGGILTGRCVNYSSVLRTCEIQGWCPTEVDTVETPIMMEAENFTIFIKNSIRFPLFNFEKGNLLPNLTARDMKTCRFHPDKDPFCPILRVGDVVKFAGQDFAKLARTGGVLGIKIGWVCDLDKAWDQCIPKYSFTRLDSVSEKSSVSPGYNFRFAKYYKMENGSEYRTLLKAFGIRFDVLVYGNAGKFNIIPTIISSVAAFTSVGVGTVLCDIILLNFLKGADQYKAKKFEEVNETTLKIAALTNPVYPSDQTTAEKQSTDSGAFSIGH
Protocol: (§1) CHO-K1 cells were transfected with cloned rat P2X3 or human P2X2/3 receptor subunits and passaged in flasks. 18-24 hours before the FLIPR experiment, cells were released from their flasks, centrifuged, and resuspended in nutrient medium at 2.5×10^5 cells/ml. The cells were aliquoted into black-walled 96-well plates at a density of 50,000 cells/well and incubated overnight in 5% CO2 at 37° C. On the day of the experiment, cells were washed in FLIPR buffer (calcium- and magnesium-free Hank's balanced salt solution, 10 mM HEPES, 2 mM CaCl2, 2.5 mM probenecid; FB). Each well received 100 μl FB and 100 μl of the fluorescent dye Fluo-3 AM [2 μM final conc.]. […]
(§2) Test compounds (dissolved in DMSO at 10 mM and serially diluted with FB) or vehicle were added to each well (25 μl of a 4× solution) and allowed to equilibrate for 20 minutes at room temperature. The plates were then placed in the FLIPR and a baseline fluorescence measurement (excitation at 488 nm and emission at 510-570 nm) was obtained for 10 seconds before a 100 μl/well agonist or vehicle addition. […] Fluorescence was measured for an additional 2 minutes at 1 second intervals after agonist addition. A final addition of ionomycin (5 μM, final concentration) was made to each well of the FLIPR test plate to establish cell viability and maximum fluorescence of dye-bound cytosolic calcium. […]

rat P2X3 receptor = target: T2, rat P2X3 receptor (Rattus norvegicus, UniProt P49654); assay: P2X3 FLIPR (Fluorometric Imaging Plate Reader) assay; format: cell-based; settings: CHO-K1 cells transfected with cloned rat P2X3; agonist α,β-meATP 1 μM; Fluo-3 AM fluorescence; read-out: pIC50 for the P2X3 receptor (converted)
T2 construct: expressed in transfected cells; host or cells: CHO-K1
T2 sequence (P49654 1-397): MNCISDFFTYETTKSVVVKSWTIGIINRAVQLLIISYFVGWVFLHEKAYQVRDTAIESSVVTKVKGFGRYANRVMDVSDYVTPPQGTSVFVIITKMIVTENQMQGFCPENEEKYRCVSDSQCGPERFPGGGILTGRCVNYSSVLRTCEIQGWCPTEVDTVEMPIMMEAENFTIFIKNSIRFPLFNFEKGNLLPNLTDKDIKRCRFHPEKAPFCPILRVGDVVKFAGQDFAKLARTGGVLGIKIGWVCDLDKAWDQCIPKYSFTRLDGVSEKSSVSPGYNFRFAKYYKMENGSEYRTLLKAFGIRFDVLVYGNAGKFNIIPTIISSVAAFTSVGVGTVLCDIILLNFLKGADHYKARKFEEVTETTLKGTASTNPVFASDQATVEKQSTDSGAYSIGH
Protocol: as §1, §2

Row | Ki (human P2X2/3 receptor) [nM] | IC50 (rat P2X3 receptor) [nM] | Compound
1 | ~21.4 | – | Cc1ccc(-c2cc(C(=O)NCc3ccc(C)nn3)cc(-n3nccc3CC(C)C)c2)nc1 [Compound 101, 3-(5-Isobutyl-pyrazol-1-yl)-N-(6-methyl-pyridazin-3-ylmethyl)-5-(5-methyl-pyridin-2-yl)-benzamide]
2 | – | ~2.14 | Cc1ccc(-c2cc(C(=O)N[C@@H](C)CO)cc(-c3ccnn3C3CCC3)c2)nc1 [Compound 70, 3-(2-Cyclobutyl-2H-pyrazol-3-yl)-N-((S)-2-hydroxy-1-methyl-ethyl)-5-(5-methyl-pyridin-2-yl)-benzamide]
